Laboratory results published in PubChem BioAssay AID328 (DTP/NCI, 2004).
Values joined by “and” are separate entries in the source; they are usually repeats but may differ in a detail not shown here. Identical values can stand only once. Inconclusive results and toxic doses are left out.

Test system: BDF1 mice, P388 leukemia ip, median survival T/C
Assay: NCI In Vivo Anticancer Drug Screen. Data for tumor model P388 Leukemia (intraperitoneal) in B6D2F1 (BDF1) mice
Conditions: endpoint: median survival time, higher = longer survival
Summary of the method: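 In tumour-bearing mice, survival after compound treatment is set against the vehicle group and given as a quotient.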

[1] = dose: 3.13 mg/kg/injection, schedule: Q01DX009 (ip), vehicle: saline with Tween-80
[2] = dose: 6.25 mg/kg/injection, schedule: Q01DX009 (ip), vehicle: saline with Tween-80
[3] = dose: 12.5 mg/kg/injection, schedule: Q01DX009 (ip), vehicle: saline with Tween-80
[4] = dose: 25.0 mg/kg/injection, schedule: Q01DX009 (ip), vehicle: saline with Tween-80
[5] = dose: 50.0 mg/kg/injection, schedule: Q01DX009 (ip), vehicle: saline with Tween-80
[6] = dose: 100.0 mg/kg/injection, schedule: Q04DX003 (ip), vehicle: saline with Tween-80
[7] = dose: 200.0 mg/kg/injection, schedule: Q04DX003 (ip), vehicle: saline with Tween-80
[8] = dose: 100.0 mg/kg/injection, schedule: Q01DX009 (ip), vehicle: saline with Tween-80
[9] = dose: 200.0 mg/kg/injection, schedule: Q01DX009 (ip), vehicle: saline with Tween-80

CCCCCCCCCCCCCCCC(=O)OCC1OC(n2ccc(N)nc2=O)C(O)C1O (stereo not given)
T/C (dose: 0.38 mg/kg/injection, schedule: Q04DX003 (ip), vehicle: saline with Tween-80): 111 % of control
T/C (dose: 0.88 mg/kg/injection, schedule: Q04DX003 (ip), vehicle: saline with Tween-80): 109 % of control
T/C (dose: 1.5 mg/kg/injection, schedule: Q04DX003 (ip), vehicle: saline with Tween-80): 152 % of control
T/C (dose: 2.0 mg/kg/injection, schedule: Q04DX003 (ip), vehicle: saline with Tween-80): 154 % of control
T/C (dose: 3.0 mg/kg/injection, schedule: Q04DX003 (ip), vehicle: saline with Tween-80): 181 % of control and 189 % of control
T/C [1]: 272 % of control and 215 % of control
T/C [2]: 250 % of control and 322 % of control
T/C (dose: 7.5 mg/kg/injection, schedule: Q01DX009 (ip), vehicle: saline with Tween-80): 186 % of control
T/C [3]: 300 % of control and 333 % of control
T/C (dose: 15.0 mg/kg/injection, schedule: Q01DX009 (ip), vehicle: saline with Tween-80): 190 % of control
T/C (dose: 22.0 mg/kg/injection, schedule: Q01DX009 (ip), vehicle: saline with Tween-80): 272 % of control
T/C [4]: 266 % of control and 300 % of control
T/C (dose: 25.0 mg/kg/injection, schedule: Q04DX003 (ip), vehicle: saline with Tween-80): 109 % of control
T/C (dose: 30.0 mg/kg/injection, schedule: Q01DX009 (ip), vehicle: saline with Tween-80): 104 % of control
T/C (dose: 30.25 mg/kg/injection, schedule: Q01DX001 (ip), vehicle: Klucel (hydroxypropylcellulose) (HPC)): 214 % of control
T/C (dose: 31.75 mg/kg/injection, schedule: Q04DX002 (ip), vehicle: Klucel (hydroxypropylcellulose) (HPC)): 265 % of control and 204 % of control
T/C (dose: 40.0 mg/kg/injection, schedule: Q01DX001 (ip), vehicle: saline with Tween-80): 171 % of control
T/C (dose: 44.0 mg/kg/injection, schedule: Q04DX003 (ip), vehicle: saline sonified): 275 % of control
T/C [5]: 90 % of control
T/C (dose: 50.0 mg/kg/injection, schedule: Q04DX003 (ip), vehicle: saline with Tween-80): 195 % of control
T/C (dose: 60.0 mg/kg/injection, schedule: Q01DX001 (ip), vehicle: saline with Tween-80): 188 % of control
T/C (dose: 62.5 mg/kg/injection, schedule: Q04DX002 (ip), vehicle: Klucel (hydroxypropylcellulose) (HPC)): 241 % of control and 265 % of control
T/C (dose: 66.0 mg/kg/injection, schedule: Q04DX003 (ip), vehicle: saline sonified): 300 % of control
T/C (dose: 90.0 mg/kg/injection, schedule: Q01DX001 (ip), vehicle: saline with Tween-80): 197 % of control
T/C (dose: 90.0 mg/kg/injection, schedule: Q04DX003 (ip), vehicle: saline with Tween-80): 231 % of control (2×) and 217 % of control
T/C (dose: 100.0 mg/kg/injection, schedule: Q01DX001 (ip), vehicle: saline): 206 % of control
T/C (dose: 100.0 mg/kg/injection, schedule: Q04DX003 (ip), vehicle: saline sonified): 300 % of control
T/C [6]: 300 % of control and 168 % of control
T/C (dose: 125.0 mg/kg/injection, schedule: Q01DX001 (ip), vehicle: saline with Tween-80): 392 % of control
T/C (dose: 125.0 mg/kg/injection, schedule: Q04DX002 (ip), vehicle: Klucel (hydroxypropylcellulose) (HPC)): 265 % of control
T/C (dose: 150.0 mg/kg/injection, schedule: Q01DX001 (ip), vehicle: saline): 318 % of control
T/C (dose: 150.0 mg/kg/injection, schedule: Q04DX003 (ip), vehicle: saline sonified): 120 % of control
T/C (dose: 200.0 mg/kg/injection, schedule: Q01DX001 (ip), vehicle: saline with Tween-80): 239 % of control and 196 % of control and 214 % of control
T/C [7]: 95 % of control and 120 % of control

CCN(CC)c1ccc(N)cc1
T/C (dose: 6.25 mg/kg/injection, schedule: Q04DX003 (ip), vehicle: other): 100 % of control
T/C (dose: 12.5 mg/kg/injection, schedule: Q01DX009 (ip), vehicle: other): 100 % of control
T/C (dose: 12.5 mg/kg/injection, schedule: Q04DX003 (ip), vehicle: other): 115 % of control
T/C (dose: 25.0 mg/kg/injection, schedule: Q01DX009 (ip), vehicle: other): 120 % of control
T/C (dose: 25.0 mg/kg/injection, schedule: Q04DX003 (ip), vehicle: other): 110 % of control

CC[n+]1ccc(Nc2ccc(NC(=O)c3ccc(Nc4cc[n+](CC)c5ccc([N+](=O)[O-])cc45)cc3)cc2)cc1
T/C (dose: 0.44 mg/kg/injection, schedule: Q04DX003 (ip), vehicle: saline): 111 % of control
T/C (dose: 0.66 mg/kg/injection, schedule: Q04DX003 (ip), vehicle: saline): 116 % of control
T/C (dose: 1.0 mg/kg/injection, schedule: Q04DX003 (ip), vehicle: saline): 100 % of control
T/C (dose: 1.5 mg/kg/injection, schedule: Q04DX003 (ip), vehicle: saline): 110 % of control
T/C (dose: 4.0 mg/kg/injection, schedule: Q04DX003 (ip), vehicle: saline): 150 % of control
T/C (dose: 6.0 mg/kg/injection, schedule: Q04DX003 (ip), vehicle: saline): 150 % of control
T/C (dose: 22.0 mg/kg/injection, schedule: Q04DX003 (ip), vehicle: saline): 152 % of control
T/C (dose: 33.0 mg/kg/injection, schedule: Q04DX003 (ip), vehicle: saline): 180 % of control
T/C (dose: 50.0 mg/kg/injection, schedule: Q04DX003 (ip), vehicle: saline): 186 % of control

Cc1ccccc1NC(=O)c1ccc([N+](=O)[O-])cc1
T/C [6]: 96 % of control
T/C [7]: 108 % of control
T/C (dose: 400.0 mg/kg/injection, schedule: Q04DX003 (ip), vehicle: saline with Tween-80): 96 % of control

O=C(O)CCC(=O)Nc1cccc(Oc2ccc([N+](=O)[O-])cc2[N+](=O)[O-])c1
T/C (dose: 100.0 mg/kg/injection, schedule: Q04DX003 (ip), vehicle: other): 95 % of control
T/C (dose: 200.0 mg/kg/injection, schedule: Q01DX009 (ip), vehicle: Klucel (hydroxypropylcellulose) (HPC)): 113 % of control
T/C (dose: 200.0 mg/kg/injection, schedule: Q04DX003 (ip), vehicle: other): 100 % of control
T/C (dose: 400.0 mg/kg/injection, schedule: Q01DX009 (ip), vehicle: Klucel (hydroxypropylcellulose) (HPC)): 109 % of control
T/C (dose: 400.0 mg/kg/injection, schedule: Q04DX003 (ip), vehicle: other): 100 % of control

O=C1CC(c2ccccc2)=NO1
T/C [4]: 96 % of control
T/C [5]: 91 % of control
T/C [8]: 101 % of control
T/C [9]: 107 % of control

CCN1C[C@]2(COC)[C@H](O)C[C@H](OC)[C@]34C1[C@H]([C@H](OC)[C@H]23)[C@]1(OC(C)=O)[C@H]2[C@@H](OC(=O)c3ccccc3)[C@](O)(C[C@H]24)[C@@H](OC)[C@@H]1O
T/C (dose: 0.13 mg/kg/injection, schedule: Q01DX009 (ip), vehicle: Klucel (hydroxypropylcellulose) (HPC)): 93 % of control
T/C (dose: 0.25 mg/kg/injection, schedule: Q01DX009 (ip), vehicle: Klucel (hydroxypropylcellulose) (HPC)): 91 % of control

O.O=C(O)O.O=C(O)O.O=C(O)O.[Zr]
T/C (dose: 100.0 mg/kg/injection, schedule: Q01DX009 (ip), vehicle: saline): 96 % of control
T/C (dose: 100.0 mg/kg/injection, schedule: Q04DX003 (ip), vehicle: saline): 100 % of control
T/C (dose: 200.0 mg/kg/injection, schedule: Q01DX009 (ip), vehicle: saline): 96 % of control
T/C (dose: 200.0 mg/kg/injection, schedule: Q04DX003 (ip), vehicle: saline): 100 % of control
T/C (dose: 400.0 mg/kg/injection, schedule: Q01DX009 (ip), vehicle: saline): 96 % of control
T/C (dose: 400.0 mg/kg/injection, schedule: Q04DX003 (ip), vehicle: saline): 95 % of control

NOc1ccc([N+](=O)[O-])cc1[N+](=O)[O-]
T/C (dose: 6.25 mg/kg/injection, schedule: Q01DX009 (ip), vehicle: Klucel (hydroxypropylcellulose) (HPC)): 115 % of control
T/C (dose: 12.5 mg/kg/injection, schedule: Q01DX009 (ip), vehicle: Klucel (hydroxypropylcellulose) (HPC)): 95 % of control
T/C (dose: 16.5 mg/kg/injection, schedule: Q01DX009 (ip), vehicle: Klucel (hydroxypropylcellulose) (HPC)): 113 % of control
T/C (dose: 25.0 mg/kg/injection, schedule: Q01DX009 (ip), vehicle: Klucel (hydroxypropylcellulose) (HPC)): 103 % of control and 113 % of control

CCOC(=O)/C=C(\C)SC1=CC(=O)c2ccccc2C1=O
T/C [1]: 102 % of control
T/C [2]: 104 % of control
T/C [3]: 112 % of control
T/C [4]: 104 % of control

COc1ccc(/C=C/c2ccc3ccccc3n2)c(OC)c1
T/C [6]: 88 % of control
T/C [7]: 100 % of control

COCCCn1c(C(Cl)(Cl)Cl)nn2c(=O)c3ccccc3nc2c1=O
T/C [8]: 87 % of control
T/C [9]: 90 % of control
